Experiments:
[1] = tested on: endothelial cell (BUVEC E6E7) monolayer; assay: Vasopermeability in vitro: transit of Evans blue linked albumin across endothelial monolayer; format: cell-based, bovine; conditions: 100 nM, 50 ng ml^-1 VEGF
Method: For evaluating if the oligopeptide THGRGFI conserves the inhibitory properties of vasoinhibin on vascular permeability, the transit of Evans blue linked albumin across an endothelial cell (BUVEC E6E7) monolayer was evaluated as follows:
BUVEC E6E7 cells were seeded over a transwell filter (pore of 0.4 μm) at a density of 10,000 cells cm^−2. After 3 days, the monolayers were starved with low serum (0.1 FBS) for 48 hours. Subsequently, 100 nM of the vasoinhibin or the oligopeptide of the present invention were added to the upper compartment (luminal part) of the transwell support, incubated for 1 hour, and followed by the addition of 50 ng ml^−1 of VEGF. Control (Ctl) was without VEGF, vasoinhibin and the oligopeptide. […] Samples of 50 μl of the abluminal compartment were collected and replaced by fresh PBS at 10, 20, 30 and 60 minutes. The absorbance (620 nm) was measured at all time points using a plate reader iMARK (BioRad). Absorbance values confirmed the transit of Evans blue labeled albumin across the endothelial monolayer.

interleukin-1α (IL-1α) = assay: Expression of vasoinhibin target gene IL-1α mRNA in BUVEC E6E7 (qPCR); format: cell-based, bovine; conditions: BUVEC E6E7, 100 nM, 4 hours
Method: Vasoinhibin induces the expression of a variety of genes via the activation of NF-KB to promote angiostatic and inflammatory effects. In particular, interleukin-1 alpha (IL-1α) and the intercellular adhesion molecule 1 (ICAM1) are vasoinhibin gene targets in the bovine endothelial cells. To evaluate the ability of the oligopeptide […] to induce the expression of IL-1α and ICAM1, BUVEC […] cells were seeded on 12 well plates with F12K-10% FBS, grown to 80% confluency, and starved with low serum (0.1% FBS) culture medium for 24 h. […] After 4 hours the RNA was extracted from the cells using Trizol (Invitrogen, Carlsbad, CA) and retrotranscribed using the High Capacity cDNA Reverse Transcription Kit (Applied Biosystems, Foster City, CA). The RT-PCR products were quantified in a Maxima SYBRgreen qPCR (Thermo Fisher Scientific) 10 μl final volume reaction mixture containing the template and 0.25 μM of each primer. The PCR amplification was done in the CFX96 Real Time PCR (BioRad), comprising a 10-minute denaturalization at 95° C., followed by 35 amplification cycles (95° C. for 10 sec, 58° C. for 30 sec, and 72° C. for 30 sec). […] The PCR data was analyzed by the 2^-ΔΔCT method and the threshold of the cycles (CT) was normalized by the constitutive housekeeping gene cyclophilin A (PPIA). […]

Substance: Ac-THGRGFI-NH2 [THGRGFI, Thr His Gly Arg Gly Phe Ile]
- inhibition of VEGF-induced endothelial permeability (Evans blue-albumin transit) [1]: inhibited the VEGF-induced increase in endothelial permeability
- fold-change of expression of IL-1α mRNA versus non-treated control (interleukin-1α (IL-1α)): ~30 fold
